Experimental data from patent publication US7196110B2, “N-substituted tricyclic 3-aminopyrazoles as inhibitors for the treatment of cell proliferative disorders” (Janssen Phamaceutica N.V., priority 2002, dated 2007).

Target: T1, PDGF-receptor beta enzyme comprising the tyrosine kinase domain (Homo sapiens, UniProt P09619)
T1 construct: from amino acid 545 to 1106 of GenBank Access NO: AAA36427
Assay: Inhibition of PDGF-receptor kinase activity (cell-free, PLC1 peptide, 33P Flashplate)
Type: biochemical
Conditions: PDGF-R kinase activity; for inhibition at 10 µM: compound at 10 uM, read-out: Percent Inhibition @ 10 uM; for IC50: read-out: IC50
Procedure, shortened: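 The IC50 is the inhibitor level halving kinase activity relative to inhibitor-free wells, measured as 33P captured on a streptavidin-bound biotin-PLC1 peptide. The reaction ran 60 min at 30 °C in pH 8 Tris buffer with 1 mM DTT, 5 μM ATP and the 545–1106 kinase-domain enzyme.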

T1 sequence (P09619 545-1106): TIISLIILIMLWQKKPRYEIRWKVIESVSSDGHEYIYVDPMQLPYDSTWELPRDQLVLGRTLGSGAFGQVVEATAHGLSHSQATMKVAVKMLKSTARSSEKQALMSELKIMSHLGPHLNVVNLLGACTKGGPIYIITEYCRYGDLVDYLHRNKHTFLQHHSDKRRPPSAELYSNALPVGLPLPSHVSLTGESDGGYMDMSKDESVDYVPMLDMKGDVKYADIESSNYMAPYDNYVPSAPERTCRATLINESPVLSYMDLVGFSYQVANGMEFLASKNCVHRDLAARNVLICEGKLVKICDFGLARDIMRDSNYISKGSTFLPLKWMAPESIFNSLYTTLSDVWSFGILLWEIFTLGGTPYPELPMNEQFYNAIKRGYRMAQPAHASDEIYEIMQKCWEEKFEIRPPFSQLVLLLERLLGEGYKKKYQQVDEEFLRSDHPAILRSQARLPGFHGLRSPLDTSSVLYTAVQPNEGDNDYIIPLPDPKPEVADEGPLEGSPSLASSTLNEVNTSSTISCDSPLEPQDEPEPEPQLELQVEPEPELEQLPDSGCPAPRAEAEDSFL

Row | SMILES | inhibition at 10 µM | IC50
1 | COc1ccc(OC)c(Nc2[nH]nc3c2Cc2c(C)cccc2-3)c1 [Compound 101, (2,5-Dimethoxy-phenyl)-(5-methyl-2,4-dihydro-indeno[1,2-c]pyrazol-3-yl)-amine] | 52% | 1090 nM
2 | COc1ccc(Nc2[nH]nc3c2Cc2c(C)cccc2-3)c(OC)c1 [Compound 102, (2,4-Dimethoxy-phenyl)-(5-methyl-2,4-dihydro-indeno[1,2-c]pyrazol-3-yl)-amine] | 50% | 3400 nM
3 | Cc1cccc2c1Cc1c-2n[nH]c1Nc1cc(F)ccc1F [Compound 103, (2,5-Difluoro-phenyl)-(5-methyl-2,4-dihydro-indeno[1,2-c]pyrazol-3-yl)-amine] | 43% | 4100 nM
4 | Cc1cccc2c1Cc1c-2n[nH]c1Nc1ccc(OC(F)(F)F)cc1 [Compound 104, (5-Methyl-2,4-dihydro-indeno[1,2-c]pyrazol-3-yl)-(4-trifluoromethoxy-phenyl)-amine] | 36% | 666 nM
5 | Cc1cccc2c1Cc1c-2n[nH]c1Nc1ccc(C(F)(F)F)cc1 [Compound 105, (5-Methyl-2,4-dihydro-indeno[1,2-c]pyrazol-3-yl)-(4-trifluoromethyl-phenyl)-amine] | 69% | 1880 nM
6 | CC1c2ccccc2-c2n[nH]c(Nc3ccc(F)cc3)c21 (centres unmarked) [Compound 106, (4-Fluoro-phenyl)-(4-methyl-2,4-dihydro-indeno[1,2-c]pyrazol-3-yl)-amine] | 38% | 1050 nM
7 | COc1ccc(Nc2[nH]nc3c2C(C)c2ccccc2-3)cc1 (centres unmarked) [Compound 107, (4-Methoxy-phenyl)-(4-methyl-2,4-dihydro-indeno[1,2-c]pyrazol-3-yl)-amine] | 56% | 1270 nM
8 | CC1c2ccccc2-c2n[nH]c(Nc3cccc(F)c3)c21 (centres unmarked) [Compound 108, (3-Fluoro-phenyl)-(4-methyl-2,4-dihydro-indeno[1,2-c]pyrazol-3-yl)-amine] | 82% | 300 nM
9 | CC1c2ccccc2-c2n[nH]c(Nc3cccnc3)c21 (centres unmarked) [Compound 109, (4-Methyl-2,4-dihydro-indeno[1,2-c]pyrazol-3-yl)-pyridin-3-yl-amine] | 83% | 537 nM
10 | COc1ccc(OC)c(Nc2[nH]nc3c2C(C)c2ccccc2-3)c1 (centres unmarked) [Compound 110, (2,5-Dimethoxy-phenyl)-(4-methyl-2,4-dihydro-indeno[1,2-c]pyrazol-3-yl)-amine] | 80% | 189 nM
11 | COc1ccc(Nc2[nH]nc3c2C(C)c2ccccc2-3)c(OC)c1 (centres unmarked) [Compound 111, (2,4-Dimethoxy-phenyl)-(4-methyl-2,4-dihydro-indeno[1,2-c]pyrazol-3-yl)-amine] | 95% | 110 nM
12 | CC1c2ccccc2-c2n[nH]c(Nc3cc(F)ccc3F)c21 (centres unmarked) [Compound 112, (2,5-Difluoro-phenyl)-(4-methyl-2,4-dihydro-indeno[1,2-c]pyrazol-3-yl)-amine] | 72% | 83 nM
13 | CC1c2ccccc2-c2n[nH]c(Nc3ccc(OC(F)(F)F)cc3)c21 (centres unmarked) [Compound 113, (4-Methyl-2,4-dihydro-indeno[1,2-c]pyrazol-3-yl)-(4-trifluoromethoxy-phenyl)-amine] | 60% | 2450 nM
14 | CC1c2ccccc2-c2n[nH]c(Nc3cccc(C(F)(F)F)c3)c21 (centres unmarked) [Compound 114, (4-Methyl-2,4-dihydro-indeno[1,2-c]pyrazol-3-yl)-(3-trifluoromethyl-phenyl)-amine] | 80% | 1370 nM
15 | COc1cc2c(cc1OC)-c1n[nH]c(Nc3cccc(C(=O)O)c3)c1C2 [Compound 115, 3-(6,7-Dimethoxy-2,4-dihydro-indeno[1,2-c]pyrazol-3-ylamino)-benzoic acid] | 82% | 3060 nM
16 | Nc1ccc2c(c1)Cc1c-2n[nH]c1Nc1cccc(Br)c1 [Compound 117, N3-(3-Bromo-phenyl)-2,4-dihydro-indeno[1,2-c]pyrazole-3,6-diamine] | 98% | 130 nM
17 | COC(=O)c1cccc(Nc2[nH]nc3c2Cc2cc(N)ccc2-3)c1 [Compound 120, 3-(6-Amino-2,4-dihydro-indeno[1,2-c]pyrazol-3-ylamino)-benzoic acid methyl ester] | 87% | 308 nM
18 | Nc1ccc2c(c1)Cc1c-2n[nH]c1Nc1cccc(F)c1 [Compound 121, N3-(3-Fluoro-phenyl)-2,4-dihydro-indeno[1,2-c]pyrazole-3,6-diamine] | 92% | 143 nM
19 | COc1cccc(Nc2[nH]nc3c2Cc2cc(N4CCN(C)CC4)ccc2-3)c1 [Compound 123, (3-Methoxy-phenyl)-[6-(4-methyl-piperazin-1-yl)-2,4-dihydro-indeno[1,2-c]pyrazol-3-yl]-amine] | 87% | 228 nM
20 | Oc1cc2c(cc1O)-c1n[nH]c(Nc3cccc(Br)c3)c1C2 [Compound 125, 3-(3-Bromo-phenylamino)-2,4-dihydro-indeno[1,2-c]pyrazole-6,7-diol] | 71% | 3440 nM
21 | c1cncc(Nc2[nH]nc3c2Cc2cc4c(cc2-3)OCO4)c1 [Compound 126, (2,9-Dihydro-5,7-dioxa-2,3-diaza-cyclopenta[a]-s-indacen-1-yl)-pyridin-3-yl-amine] | 65% | 176 nM
22 | COC(=O)c1cccc(Nc2[nH]nc3c2Cc2cc4c(cc2-3)OCO4)c1 [Compound 127, 3-(2,9-Dihydro-5,7-dioxa-2,3-diaza-cyclopenta[a]-s-indacen-1-ylamino)-benzoic acid methyl ester] | 89% | 421 nM
23 | COc1cccc(Nc2[nH]nc3c2Cc2cc(OCCCN4CCOCC4)c(OC)cc2-3)c1 [Compound 131, [7-Methoxy-6-(3-morpholin-4-yl-propoxy)-2,4-dihydro-indeno[1,2-c]pyrazol-3-yl]-(3-methoxy-phenyl)-amine] | 97% | 13 nM
24 | COCCCOc1ccc2c(c1)Cc1c-2n[nH]c1Nc1cccc(Cl)c1 [Compound 135, (3-Chloro-phenyl)-[6-(3-methoxy-propoxy)-2,4-dihydro-indeno[1,2-c]pyrazol-3-yl]-amine] | 87% | 202 nM
25 | COCCCOc1ccc2c(c1)Cc1c-2n[nH]c1Nc1ccc(F)cc1 [Compound 136, (4-Fluoro-phenyl)-[6-(3-methoxy-propoxy)-2,4-dihydro-indeno[1,2-c]pyrazol-3-yl]-amine] | 64.5% | 1330 nM
26 | COCCCOc1ccc2c(c1)Cc1c-2n[nH]c1Nc1cccc(C(=O)OC)c1 [Compound 137, 3-[6-(3-Methoxy-propoxy)-2,4-dihydro-indeno[1,2-c]pyrazol-3-ylamino]-benzoic acid methyl ester] | 71% | 2110 nM
27 | COCCCOc1ccc2c(c1)Cc1c-2n[nH]c1Nc1cccc(F)c1 [Compound 138, (3-Fluoro-phenyl)-[6-(3-methoxy-propoxy)-2,4-dihydro-indeno[1,2-c]pyrazol-3-yl]-amine] | 79.5% | 301 nM
28 | COCCCOc1ccc2c(c1)Cc1c-2n[nH]c1Nc1cccc(OC)c1 [Compound 139, (3-Methoxy-phenyl)-[6-(3-methoxy-propoxy)-2,4-dihydro-indeno[1,2-c]pyrazol-3-yl]-amine] | 80% | 98.2 nM
